Patent US9422264B2, “Carbamate-substituted oxindole derivatives and use thereof for the treatment of vasopressin-dependent diseases” (AbbVie Deutschland GmbH & Co. KG, priority 2007, dated 2016)
Where a name gives a salt, the structure may show the parent alone.

Tests used:
[1] = target: T1, recombinant human oxytocin receptors (Homo sapiens, UniProt P30559); assay: Oxytocin receptor binding assay; details: selectivity quotient, human OT versus human V1b
T1 construct: expressed in transfected cells; host or cells: HEK-293 (transient)
T1 sequence (P30559 1-389): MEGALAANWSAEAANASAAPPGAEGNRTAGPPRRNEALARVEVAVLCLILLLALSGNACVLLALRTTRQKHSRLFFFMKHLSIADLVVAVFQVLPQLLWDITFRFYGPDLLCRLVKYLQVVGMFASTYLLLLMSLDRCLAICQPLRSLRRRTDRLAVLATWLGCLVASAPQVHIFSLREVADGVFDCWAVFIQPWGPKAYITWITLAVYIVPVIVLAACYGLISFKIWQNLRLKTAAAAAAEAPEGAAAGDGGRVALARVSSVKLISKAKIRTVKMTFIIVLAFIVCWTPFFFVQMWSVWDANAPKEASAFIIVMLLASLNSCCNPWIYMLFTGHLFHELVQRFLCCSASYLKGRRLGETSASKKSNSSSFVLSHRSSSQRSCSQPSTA
Method: 4. Oxytocin Receptor Binding Assay
Confluent HEK-293 cells with transiently expressing recombinant human oxytocin receptors were centrifuged at 750×g at room temperature for 5 minutes. The residue was taken up in ice-cold lysis buffer (50 mM Tris-HCl, 10% glycerol, pH 7.4 and Roche complete protease inhibitor) and subjected to an osmotic shock at 4° C. for 20 minutes. The lyzed cells were then centrifuged at 750×g at 4° C. for 20 minutes, the residue was taken up in incubation buffer, and aliquots of 10^7 cells/ml were prepared. The aliquots were frozen at −80° C. until used.
On the day of the experiment, the cells were thawed, diluted with incubation buffer and homogenized using a Multipette Combitip (Eppendorf, Hamburg). […] The nonspecific binding was determined with 10^−6 M oxytocin (Bachem AG, H2510). Triplicate determinations were set up. Bound and free radioligand were separated by filtration under vacuum with Whatman GF/B glass fiber filters with the aid of a Skatron cell harvester 7000. The bound radioactivity was determined by liquid scintillation measurement in a Tricarb Beta counter, model 2000 or 2200CA (Packard).

[2] = Determination of the microsomal half-life / microsomal clearance (human liver microsomes); format: in vitro ADME; details: pH 7.4, 0.5 μM test substance
Method: 5. Determination of the Microsomal Half-Life:
The metabolic stability of the compounds of the invention was determined in the following assay.
The test substances were incubated in a concentration of 0.5 μM as follows:
0.5 μM test substance are preincubated together with liver microsomes from different species (from rat, human or other species) (0.25 mg of microsomal protein/ml) in 0.05 M potassium phosphate buffer of pH 7.4 in microtiter plates at 37° C. for 5 min. The reaction is started by adding NADPH (1 mg/mL). After 0, 5, 10, 15, 20 and 30 min, 50 μl aliquots are removed, and the reaction is immediately stopped and cooled with the same volume of acetonitrile. The samples are frozen until analyzed. The remaining concentration of undegraded test substance is determined by MSMS. The half-life (T½) is determined from the gradient of the signal of test substance/unit time plot, it being possible to calculate the half-life of the test substance, assuming first order kinetics, from the decrease in the concentration of the compound with time. The microsomal clearance (mCl) is calculated from mCl=In2/T½/(content of microsomal protein in mg/ml)×1000 […] (modified from references: Di, The Society for Biomoleculur Screening, 2003, 453-462; Obach, DMD, 1999 vol. 27. N 11, 1350-1359).

[3] = target: T2, human vasopressin V1b receptor (Homo sapiens, UniProt P47901); assay: Vasopressin V1b receptor binding assay; details: read-out: Ki(h-V1b)*
T2 construct: expressed in transfected cells; host or cells: CHO-K1 (cell line hV1b_3H2_CHO)
T2 sequence (P47901 1-424): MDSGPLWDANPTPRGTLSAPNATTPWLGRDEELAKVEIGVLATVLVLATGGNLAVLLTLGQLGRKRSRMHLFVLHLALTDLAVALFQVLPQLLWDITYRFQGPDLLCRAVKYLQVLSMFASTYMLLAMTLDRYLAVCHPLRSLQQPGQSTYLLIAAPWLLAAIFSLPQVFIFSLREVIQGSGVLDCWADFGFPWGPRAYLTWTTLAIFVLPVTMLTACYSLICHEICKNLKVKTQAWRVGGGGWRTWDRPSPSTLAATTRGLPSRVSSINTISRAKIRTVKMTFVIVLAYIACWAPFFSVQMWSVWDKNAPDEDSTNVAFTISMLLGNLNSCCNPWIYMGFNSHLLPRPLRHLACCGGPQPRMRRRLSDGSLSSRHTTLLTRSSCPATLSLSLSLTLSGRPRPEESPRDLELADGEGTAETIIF
Method: 1. Vasopressin V1b Receptor Binding Assay:
The substance concentration was further diluted 1:5 in the assay mixture (2% DMSO in the mixture).
All determinations were carried out as triplicate determinations.

[4] = target: human vasopressin V1a receptor (Homo sapiens, UniProt P37288); assay: Vasopressin V1a receptor binding assay; details: selectivity quotient, human V1a versus human V1b
Sequence of human vasopressin V1a receptor (P37288 whole entry): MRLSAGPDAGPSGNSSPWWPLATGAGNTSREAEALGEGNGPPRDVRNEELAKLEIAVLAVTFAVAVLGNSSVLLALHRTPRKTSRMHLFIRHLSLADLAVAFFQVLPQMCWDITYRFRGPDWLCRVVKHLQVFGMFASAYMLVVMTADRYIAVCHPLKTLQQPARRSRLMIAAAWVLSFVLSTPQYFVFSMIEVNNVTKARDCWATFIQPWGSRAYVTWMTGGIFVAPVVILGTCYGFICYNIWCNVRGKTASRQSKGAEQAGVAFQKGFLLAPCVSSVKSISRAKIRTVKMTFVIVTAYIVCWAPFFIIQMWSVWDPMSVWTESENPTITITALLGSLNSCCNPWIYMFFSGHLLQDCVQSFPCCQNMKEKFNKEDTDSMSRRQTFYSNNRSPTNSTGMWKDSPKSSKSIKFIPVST

| SMILES | Ki(h-OT)/Ki(h-V1b)* [1] | microsomal CLint at 0.5 μM [2] [µL/min/mg] | Ki [3] [nM] | Ki(h-V1a)/Ki(h-V1b)* [4] |
| --- | --- | --- | --- | --- |
| CCOc1ncccc1C1(OC(=O)N2CCN(C3CCN(C)CC3)CC2)C(=O)N(S(=O)(=O)c2ccccc2)c2ccc(C#N)cc21 (racemic) [Example 4, (±)-5-Cyano-3-(2-ethoxypyridin-3-yl)-2-oxo-1-(phenylsulfonyl)-2,3-dihydro-1H-indol-3-yl 4-(1-methylpiperidin-4-yl)piperazine-1-carboxylate] | +++ (>45) | < 50 | < 10 | +++ (>75) |
| CCOc1ncccc1C1(OC(=O)N2CCN(C3CCN(C)CC3)CC2)C(=O)N(S(=O)(=O)c2ccccc2OC)c2ccc(C#N)cc21 (racemic) [Example 2, (±)-5-Cyano-3-(2-ethoxypyridin-3-yl)-1-[(2-methoxyphenyl)sulfonyl]-2-oxo-2,3-dihydro-1H-indol-3-yl-4-(1-methylpiperidin-4-yl)piperazine-1-carboxylate] | +++ (>45) | 75 to 200 | < 10 | +++ (>75) |
| CCOc1ncccc1C1(OC(=O)N2CCC(N3CCN(C)CC3)CC2)C(=O)N(S(=O)(=O)c2ccc(OC)cc2)c2ccc(C#N)cc21 (racemic) [Example 35, (±)-5-Cyano-3-(2-ethoxypyridin-3-yl)-1-[(4-methoxyphenyl)sulfonyl]-2-oxo-2,3-dihydro-1H-indol-3-yl 4-(4-methylpiperazin-1-yl)piperidine-1-carboxylate] | ++ (>25-45) | 75 to 200 | < 10 | ++ (>25-75) |
| CCOc1ncccc1C1(OC(=O)N2CCC(N3CCN(CC)CC3)CC2)C(=O)N(S(=O)(=O)c2ccc(OC)cc2OC)c2ccc(C#N)cc21 (racemic) [Example 37, (±)-5-Cyano-1-[(2,4-dimethoxyphenyl)sulfonyl]-3-(2-ethoxypyridin-3-yl)-2-oxo-2,3-dihydro-1 H-indol-3-yl-4-(4-ethylpiperazin-1-yl)piperidine-1-carboxylate] | +++ (>45) | 75 to 200 | < 10 | +++ (>75) |
| CCOc1ncccc1C1(OC(=O)N2CCN(C3CCNCC3)CC2)C(=O)N(S(=O)(=O)c2ccc(OC)cc2OC)c2ccc(C#N)cc21 (racemic) [Example 25, (±)-5-Cyano-1-[(2,4-dimethoxyphenyl)sulfonyl]-3-(2-ethoxypyridin-3-yl)-2-oxo-2,3-dihydro-1H-indol-3-yl-4-piperidin-4-ylpiperazine-1-carboxylate as bis(trifluoroacetic acid) salt] | + (15-25) | 50 to 75 | < 10 | +++ (>75) |
| CCOc1ncccc1C1(OC(=O)N2CCN(C3CCN(C)CC3)CC2)C(=O)N(S(=O)(=O)c2ccccc2OC)c2ccc(C#N)cc21 (single isomer, unassigned; (-)) [Example 2B, (−)-5-Cyano-3-(2-ethoxypyridin-3-yl)-1-[(2-methoxyphenyl)sulfonyl]-2-oxo-2,3-dihydro-1H-indol-3-yl-4-(1-methylpiperidin-4-yl)piperazine-1-carboxylate] | +++ (>45) | 75 to 200 | < 10 | +++ (>75) |
| CCOc1ncccc1C1(OC(=O)N2CCN(C3CCN(C)CC3)CC2)C(=O)N(S(=O)(=O)c2ccccc2)c2ccc(C#N)cc21 (single isomer, unassigned; (-)) [Example 4B, (−)-5-Cyano-3-(2-ethoxypyridin-3-yl)-2-oxo-1-(phenylsulfonyl)-2,3-dihydro-1H-indol-3-yl 4-(1-methylpiperidin-4-yl)piperazine-1-carboxylate] | +++ (>45) | < 50 | < 10 | +++ (>75) |
| CCOc1ncccc1C1(OC(=O)N2CCN(C3CCN(C)CC3)CC2)C(=O)N(S(=O)(=O)c2ccc(OC)cc2)c2ccc(C#N)cc21 (racemic) [Example 5, (±)-5-Cyano-3-(2-ethoxypyridin-3-yl)-1-[(4-methoxyphenyl)sulfonyl]-2-oxo-2,3-dihydro-1H-indol-3-yl-4-(1-methylpiperidin-4-yl)piperazine-1-carboxylate] | ++ (>25-45) | 75 to 200 | < 10 | +++ (>75) |
| CCOc1ncccc1C1(OC(=O)N2CCC(N3CCN(C)CC3)CC2)C(=O)N(S(=O)(=O)c2ccccc2OC)c2ccc(C#N)cc21 (racemic) [Example 32, (±)-5-Cyano-3-(2-ethoxypyridin-3-yl)-1-[(2-methoxyphenyl)sulfonyl]-2-oxo-2,3-dihydro-1H-indol-3-yl 4-(4-methylpiperazin-1-yl)piperidine-1-carboxylate] | +++ (>45) | 75 to 200 | 10 to 50 | ++ (>25-75) |
| CCOc1ncccc1C1(OC(=O)N2CCN(C3CCN(CC)CC3)CC2)C(=O)N(S(=O)(=O)c2ccccc2)c2ccc(C#N)cc21.O=C(O)C(F)(F)F (racemic) [Example 10, (±)-5-Cyano-3-(2-ethoxypyridin-3-yl)-2-oxo-1-(phenylsulfonyl)-2,3-dihydro-1H-indol-3-yl 4-(1-ethylpiperidin-4-yl)piperazine-1-carboxylate, trifluoroacetic acid salt] | +++ (>45) | < 50 | < 10 | +++ (>75) |
| CCOc1ncccc1C1(OC(=O)N2CCN(C3CCN(C)CC3)CC2)C(=O)N(S(=O)(=O)c2ccc(OC)cc2OC)c2ccc(C#N)cc21 (racemic) [Example 1, (±)-5-Cyano-1-[(2,4-dimethoxyphenyl)sulfonyl]-3-(2-ethoxypyridin-3-yl)-2-oxo-2,3-dihydro-1H-indol-3-yl-4-(1-methylpiperidin-4-yl)piperazine-1-carboxylate] | +++ (>45) | 75 to 200 | < 10 | +++ (>75) |
| CCOc1ncccc1C1(OC(=O)N2CCN(C3CCNCC3)CC2)C(=O)N(S(=O)(=O)c2ccccc2)c2ccc(C#N)cc21 (racemic) [Example 28, (±)-5-Cyano-3-(2-ethoxypyridin-3-yl)-2-oxo-1-(phenylsulfonyl)-2,3-dihydro-1H-indol-3-yl 4-piperidin-4-ylpiperazine-1-carboxylate as bis(trifluoroacetic acid) salt] | +++ (>45) | < 50 | 10 to 50 | ++ (>25-75) |
